Values after ≈ are worked out from the molar mass of the structure shown.
Tested on: L1210
Assay: Cytotoxicity against mouse L1210 cells
Type: functional, cell-based

In the case of `CC(=O)OC[C@]12CC[C@H]3[C@@H](C[C@@H](O)[C@@]4(O)C[C@@H](O)CC[C@]34C)[C@@H]1[C@H](O)C[C@@H]2[C@H](C)CCCC(C)C` [DENDRONESTEROL B], the IC50 was 5.2 µg/mL (≈ 10.5 µM).

Reference: ChEMBL document CHEMBL1154581, “Polyhydroxylated sterols from the octocoral Dendronephthya gigantea” (J Nat Prod, 2000)
